In publication PMC10043345, “Discovery of BAR502, as potent steroidal antagonist of leukemia inhibitory factor receptor for the treatment of pancreatic adenocarcinoma” (Frontiers in Oncology, 2023):

Molecular target: T1, FXR (Homo sapiens, UniProt Q96RI1)
T1 construct: expressed in transfected cells; host or cells: HepG2
T1 sequence (Q96RI1 1-486): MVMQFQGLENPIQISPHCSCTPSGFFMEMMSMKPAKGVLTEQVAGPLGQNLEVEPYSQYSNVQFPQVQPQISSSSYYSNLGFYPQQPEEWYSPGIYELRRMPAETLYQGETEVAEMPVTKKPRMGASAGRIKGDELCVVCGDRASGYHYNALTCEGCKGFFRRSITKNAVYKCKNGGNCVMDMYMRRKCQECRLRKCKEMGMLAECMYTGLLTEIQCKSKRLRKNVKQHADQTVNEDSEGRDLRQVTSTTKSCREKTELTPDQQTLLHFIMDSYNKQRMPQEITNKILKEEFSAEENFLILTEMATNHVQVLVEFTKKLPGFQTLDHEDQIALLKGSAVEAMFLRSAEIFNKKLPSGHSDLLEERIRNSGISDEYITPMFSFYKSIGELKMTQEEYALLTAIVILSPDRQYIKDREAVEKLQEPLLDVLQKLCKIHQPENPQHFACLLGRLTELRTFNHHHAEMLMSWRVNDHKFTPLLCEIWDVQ
T1 sequence (P19793 1-462 partner): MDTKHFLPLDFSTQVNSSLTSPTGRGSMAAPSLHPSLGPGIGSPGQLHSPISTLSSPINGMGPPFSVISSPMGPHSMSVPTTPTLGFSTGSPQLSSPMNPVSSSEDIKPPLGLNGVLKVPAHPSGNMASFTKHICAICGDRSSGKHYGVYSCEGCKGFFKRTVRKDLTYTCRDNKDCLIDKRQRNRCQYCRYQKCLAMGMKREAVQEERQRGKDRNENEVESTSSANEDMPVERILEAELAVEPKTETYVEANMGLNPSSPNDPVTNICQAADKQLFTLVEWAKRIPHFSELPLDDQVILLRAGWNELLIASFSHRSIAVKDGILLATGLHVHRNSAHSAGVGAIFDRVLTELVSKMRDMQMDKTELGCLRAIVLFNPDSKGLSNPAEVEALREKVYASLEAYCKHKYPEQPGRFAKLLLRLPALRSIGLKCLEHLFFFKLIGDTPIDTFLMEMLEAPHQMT
Test: FXR transactivation (FXR/RXR, hsp27 IR1-luciferase) in HepG2 cells
Type: cell-based
Procedure: On day 0, HepG2 were seeded at 7.5 × 10^4 cells/well in a 24-well plate and maintained at 37°C and 5% CO2 in E-MEM supplemented with 10% FBS, 1% glutamine, and 1% penicillin/streptomycin. On day 1, cells were transiently transfected with the reporter plasmid pGL4.47[luc2P/SIE/Hygro] (200 ng) (CAT#: E4041 Promega, Madison, WI, USA), a vector encoding the hLIFR (CAT# RC226327) (100 ng) and CD130 (IL6ST) (100 ng) (CAT#: RC215123, OriGene Technologies, Inc. Rockville, MD, USA), and finally a vector encoding the human RENILLA luciferase gene (pGL4.70) (100 ng) (Promega, Madison, WI, USA). On day 2, cells were exposed to the cytokine LIF (10 ng/mL) alone or in combination with BAR502 (from 0.1 to 20 μM). […] For FXR mediated transactivation, HepG2 cells were plated at 7.5 × 10^4 cells/well in a 24 well plate. Cells were transfected with 200 ng of the reporter vector p(hsp27)-TK-LUC containing a FXR response element (IR1) cloned from the promoter of heat shock protein 27 (hsp27), 100 ng of pSG5-FXR, 100 ng of pSG5-RXR, and 100 ng of pGL4.70 (Promega), a vector encoding the human Renilla gene. To perform STAT3 transactivation, HepG2 were seeded at 7.5× 10^4 cells/well in a 24-well plate. On the day-1, cells were transiently transfected with 200 ng of the reporter plasmid pGL4.47[luc2P/SIE/Hygro] […] Luminescence was measured using a Glomax 20/20 luminometer (Promega, Madison, WI, USA). […]

Compound | EC50 (transactivation, agonism, read-out: FXR EC50 Transact) [µM] | IC50 (read-out: HepG2 FXR/RXR Antagonism IC50) [µM]
CC[C@H]1[C@@H](O)C2C3CC[C@H]([C@H](C)CCO)[C@@]3(C)CCC2[C@@]2(C)CC[C@@H](O)C[C@@H]12 (some centres unmarked) [BAR502] | 3 ± 1 | 
OCc1ccc(-c2ccc(OCc3cc(-c4c(Cl)cccc4Cl)no3)cc2)cc1 [PDL103, (4’-((3-(2,6-dichlorophenyl)isoxazol-5-yl)methoxy)-[1,1’-biphenyl]-4-yl)methanol] |  | 10
